Consider 13 compounds from US9730940B2, “Purine inhibitors of human phosphatidylinositol 3-kinase delta” (priority 2012, dated 2017).

Sequence of PI3K-alpha (P42336 whole entry, looked up, canonical isoform): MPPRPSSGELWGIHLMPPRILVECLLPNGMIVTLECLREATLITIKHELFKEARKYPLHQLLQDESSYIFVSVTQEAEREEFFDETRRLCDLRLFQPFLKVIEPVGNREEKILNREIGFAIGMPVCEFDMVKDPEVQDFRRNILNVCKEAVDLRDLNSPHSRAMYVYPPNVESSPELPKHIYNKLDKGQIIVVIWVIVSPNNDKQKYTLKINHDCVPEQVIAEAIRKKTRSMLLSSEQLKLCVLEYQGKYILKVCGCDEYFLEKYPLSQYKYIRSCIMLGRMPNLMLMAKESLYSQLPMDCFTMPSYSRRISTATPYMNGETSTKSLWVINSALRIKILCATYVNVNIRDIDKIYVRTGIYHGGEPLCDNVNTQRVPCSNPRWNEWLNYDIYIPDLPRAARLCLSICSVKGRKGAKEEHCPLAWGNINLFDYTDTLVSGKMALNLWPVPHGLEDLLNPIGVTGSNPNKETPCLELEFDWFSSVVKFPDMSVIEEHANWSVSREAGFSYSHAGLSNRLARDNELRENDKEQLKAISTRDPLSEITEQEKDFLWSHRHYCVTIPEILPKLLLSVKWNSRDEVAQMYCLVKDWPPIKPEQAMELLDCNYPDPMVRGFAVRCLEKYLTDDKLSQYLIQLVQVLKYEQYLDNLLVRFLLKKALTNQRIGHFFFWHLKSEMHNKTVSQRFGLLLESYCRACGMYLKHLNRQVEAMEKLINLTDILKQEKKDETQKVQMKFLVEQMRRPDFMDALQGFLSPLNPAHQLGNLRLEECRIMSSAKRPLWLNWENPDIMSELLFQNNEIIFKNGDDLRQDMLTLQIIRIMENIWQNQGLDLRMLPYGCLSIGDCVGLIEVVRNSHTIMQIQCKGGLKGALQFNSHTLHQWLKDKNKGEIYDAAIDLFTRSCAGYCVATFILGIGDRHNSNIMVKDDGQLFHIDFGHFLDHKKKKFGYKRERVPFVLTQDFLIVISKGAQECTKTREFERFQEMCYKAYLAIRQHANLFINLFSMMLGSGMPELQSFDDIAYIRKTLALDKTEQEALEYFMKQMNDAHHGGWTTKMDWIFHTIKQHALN
Sequence of PI3K-alpha (P27986 whole entry partner, looked up, canonical isoform): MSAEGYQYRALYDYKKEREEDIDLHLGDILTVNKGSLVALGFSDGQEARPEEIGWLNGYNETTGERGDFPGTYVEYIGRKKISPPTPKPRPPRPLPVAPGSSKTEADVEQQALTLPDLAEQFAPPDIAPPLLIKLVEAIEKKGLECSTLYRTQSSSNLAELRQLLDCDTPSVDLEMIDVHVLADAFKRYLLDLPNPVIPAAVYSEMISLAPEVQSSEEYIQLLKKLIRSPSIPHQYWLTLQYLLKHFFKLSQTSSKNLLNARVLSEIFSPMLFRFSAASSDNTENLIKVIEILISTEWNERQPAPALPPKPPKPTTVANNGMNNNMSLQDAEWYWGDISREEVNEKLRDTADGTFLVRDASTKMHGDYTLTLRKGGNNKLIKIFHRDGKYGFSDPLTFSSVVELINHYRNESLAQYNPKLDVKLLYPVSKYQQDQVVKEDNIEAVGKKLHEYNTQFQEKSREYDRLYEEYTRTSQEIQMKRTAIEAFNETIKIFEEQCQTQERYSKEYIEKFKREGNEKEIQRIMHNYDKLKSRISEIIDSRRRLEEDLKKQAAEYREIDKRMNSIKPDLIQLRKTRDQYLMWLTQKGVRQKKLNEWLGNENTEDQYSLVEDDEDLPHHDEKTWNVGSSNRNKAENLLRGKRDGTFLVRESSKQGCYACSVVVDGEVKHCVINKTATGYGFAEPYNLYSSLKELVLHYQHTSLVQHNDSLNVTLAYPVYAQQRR

This experiment concerns the target PI3K-alpha (Homo sapiens (Human), UniProt P42336). Kind of experiment: HTRF PI3K biochemical assay, alpha isoform. As to conditions: ratio PI3K-alpha IC50 value/PI3K-delta IC50 value. On the technique in general: TR-FRET usually uses a lanthanide donor and a delayed reading to cut background.
In the case of `CCC(=O)N1CC[C@H](Oc2ncnc3c2nc(-c2cnc(C(C)(C)C)s2)n3CC)C1` [Compound 2-95, (S)-1-(3-((8-(2-(tert-butyl)thiazol-5-yl)-9-ethyl-9H-purin-6-yl)oxy)pyrrolidin-1-yl)propan-1-one], the “Relative Selectivity versus PI3Kalpha” value is on record as above 10. For `CCn1ncc(-c2nc3c(O[C@H]4CCN(C(=O)C5CC(=O)N(C(C)C)C5)C4)ncnc3n2C)c1C` (stereo partly drawn) [Compound 2-77, 4-{[(3S)-3-{[8-(1-ethyl-5-methyl-1H-pyrazol-4-yl)-9-methyl-9H-purin-6-yl]oxy}pyrrolidin-1-yl]carbonyl}-1-(1-methylethyl)pyrrolidin-2-one] the value was above 10. For `CCn1ncc(-c2nc3c(O[C@H]4CCN(C(=O)c5cc(C)n(C)c5C)C4)ncnc3n2C)c1C` [Compound 2-79, 8-(1-ethyl-5-methyl-1H-pyrazol-4-yl)-9-methyl-6-({(3S)-1-[(1,2,5-trimethyl-1H-pyrrol-3-yl)carbonyl]pyrrolidin-3-yl}oxy)-9H-purine] the value was above 10; for `CCn1c(-c2cnc(C)nc2)nc2c(O[C@H]3CCN(C(=O)N4CCC(F)(F)C4)C3)ncnc21` [Compound 5-26, 6-({(3S)-1-[(3,3-difluoropyrrolidin-1-yl)carbonyl]pyrrolidin-3-yl}oxy)-9-ethyl-8-(2-methylpyrimidin-5-yl)-9H-purine], above 10. Then `CCC(=O)N[C@H]1CC[C@H](Oc2ncnc3c2nc(-c2cnc(C)nc2)n3CC)CC1` [Compound 9-7, N-(trans-4-{[9-ethyl-8-(2-methylpyrimidin-5-yl)-9H-purin-6-yl]oxy}cyclohexyl)propanamide], with above 10; and `Cn1c(-c2ccc(O)cc2)nc2c(O[C@H]3CCN(C(=O)OC(C)(C)C)C3)ncnc21` [Compound 1-18, tert-butyl (3S)-3-{[8-(4-hydroxyphenyl)-9-methyl-9H-purin-6-yl]oxy}pyrrolidine-1-carboxylate], with above 10. `CCC1CN(C(=O)C2CC2)CC1Oc1ncnc2c1nc(-c1cnc(C)nc1)n2CC` (stereo not shown) [Compound 3-46, [3R,4S and 3S,4R]-6-{[1-(cyclopropylcarbonyl)-4-ethylpyrrolidin-3-yl]oxy}-9-ethyl-8-(2-methylpyrimidin-5-yl)-9H-purine]: the “Relative Selectivity versus PI3Kalpha” value is given as above 10. As for `CCn1ncc(-c2nc3c(OC4CCC(C(=O)N5CCOCC5)C4)ncnc3n2C)c1C` (stereo not shown) [Compound 8-1], the “Relative Selectivity versus PI3Kalpha” value is 9. For `CCC(=O)N1CC[C@H](Oc2ncnc3c2nc(Oc2cc(F)cc(OC)c2)n3C)C1` [Compound 12-2, 8-(3-fluoro-5-methoxyphenoxy)-9-methyl-6-{[(3S)-1-propanoylpyrrolidin-3-yl]oxy}-9H-purine] the value was above 10; for `CCn1c(-c2cnc(C)nc2)nc2c(O[C@H]3CCN(C(=O)[C@H]4CCC[C@H]4N)C3)ncnc21` [Compound 2-103, (1R,2S)-2-{[(3S)-3-{[9-ethyl-8-(2-methylpyrimidin-5-yl)-9H-purin-6-yl]oxy}pyrrolidin-1-yl]carbonyl}cyclopentanamine], above 10. In the case of `CCn1c(-c2cnc(C)nc2)nc2c(O[C@H]3CCN(C(=O)C4(N)CCC4)C3)ncnc21` [Compound 2-112, 1-{[(3S)-3-{[9-ethyl-8-(2-methylpyrimidin-5-yl)-9H-purin-6-yl]oxy}pyrrolidin-1-yl]carbonyl}cyclobutanamine], the “Relative Selectivity versus PI3Kalpha” value was above 10.

`CCC(=O)N1CC[C@H](Oc2ncnc3c2nc(-c2ccc4cc[nH]c4c2)n3C)C1` [Compound 3-4, (S)-1-(3-((8-(1H-indol-6-yl)-9-methyl-9H-purin-6-yl)oxy)pyrrolidin-1-yl)propan-1-one]: the “Relative Selectivity versus PI3Kalpha” value is above 10. Then `CCn1ncc(-c2nc3c(O[C@H]4CCN(C(=O)C5CCOCC5)C4)ncnc3n2CC)c1C` [Compound 3-61, (S)-(3-((9-ethyl-8-(1-ethyl-5-methyl-1H-pyrazol-4-yl)-9H-purin-6-yl)oxy)pyrrolidin-1-yl)(tetrahydro-2H-pyran-4-yl)methanone], with above 10.
